From patent US20040048791A1, “Method for treating neoplastic cells using cycloprodigiosin or salt thereof” (priority 2002, published 2004)
Counter-ions that a name gives are not always drawn.

Key:
NF-κB [1] = conditions: earlier abstract of the inventors (Kamata et al., 2000); cited from earlier work
CMV promoter = assay: CMV promoter-dependent luciferase gene expression (control); format: cell-based; conditions: FIG. 2B
Protocol: Luciferase gene reporter assay and Kinase assays of IKK: HeLa cells were transfected with the reporter plasmids described above using Lipofectin (GIBCO BRL). After 24-48 hr, the luciferase activity was determined using the Luciferase Assay System (Promega). The kinase activity of IKKα and IKKβ were analyzed by immune complex kinase assay as described previously (Oka, S., Kamata, H., Kamata, K., Yagisawa, H. and Hirata, H. (2000) FEBS Lett. 472, 196-202). The substrates was using GST-IκBα(1-55) or GST-p65(399-551).

IL-8 promoter = IL-8 promoter luciferase assay (pIL-8Luc) in HeLa cells; format: cell-based; conditions: TNFα 20 ng/ml 4 hours, FIG. 7
Protocol: Now in order to analyze the effect of cPrG-HCl on IL-8 gene expression which is controlled by transcription factors such as NF-κB and AP-1, luciferase assay was carried out using a reporter plasmid (pIL-8Luc) in which the luciferase gene is bound downstream of the IL-8 promoter region. In the IL-8 promoter, NF-κB, AP-1, and NF-IL6 binding sequences are present.
The pIL-8Luc was incorporated into HeLa cells by transfection. After 24 hours, the cells were pretreated with cPrG-HCl at a specified concentration for 1 hour and then stimulated with TNFα (20 ng/ml) for 4 hours, after which luciferase activity was measured.

NF-κB [2] = assay: Nuclear translocation of NF-κB (Western blotting of p65 and p50); format: cell-based
Protocol: Electrophoretic mobility shift assay (EMSA): Nuclear extracts were prepared by the method of Schreiber, et al (Schreiber, E., Matthias, P., Muller, M. M. and Schaffner, W. (1989) Nucleic Acids Res. 17, 6419). Briefly, cells were solubilized with a buffer (10 mM HEPES-NaOH, pH 7.9, 10 mM KCl, 0.1 mM EDTA, 0.1 mM EGTA, 0.4% NP-40, 0.5 mM PMSF, 1 μg/ml aprotinin, 1 μg/ml leupeptin, 1 μg/ml pepstatin, 1 mM DTT), and then centrifuged at 10,000 rpm for 15 min. The pellets were resuspended in a buffer (20 mM HEPES-NaOH, pH 7.9, 400 mM NaCl, 1 mM EDTA, 1 mM EGTA, 1 mM PMSF, 1 μg/ml aprotinin, 1 μg/ml leupeptin, 1 μg/ml pepstatin, 1 μg/ml chymostatin, 1 μg/ml antipain, 1 mM DTT), and then centrifuged at 15,000 rpm for 15 min. […] The samples were electrophoresed on an 8% polyacrylamide gel and analyzed by an Imaging plate (Fuji Film). […]
In order to find out the mechanism of NF-κB suppression by cPrG-HCl, the effect on the signal transduction system, which functions upstream of NF-κB, was analyzed. […] Next, the effect of cPrG-HCl on phosphorylation and degradation of IκB was analyzed by Western blotting using anti-IκB antibody (FIG. 2E). […] Accordingly, nuclear translocation of NF-κB was analyzed by Western blotting using p65 and p50 which are components of NF-κB (FIG. 2F). […] Further, the state of NF-κB activation in the nucleus was analyzed by EMSA (electrophoretic mobility shift assay) (FIG. 2G). […]

CRE binding factor = assay: CRE luciferase assay (pCRELuc) in COS-7 cells; format: cell-based, African green monkey; conditions: PMA 1 μg/ml 4 hours, FIG. 8
Protocol: Here in order to analyze the effect of cPrG-HCl on the CRE binding factor, luciferase assay was carried out using a reporter plasmid (pCRELuc) in which the luciferase gene is linked downstream of the CRE sequence.
The pCRELuc was transfected in COS-7 cells. After 24 hours, the cells were pretreated with cPrG-HCl at a specified concentration for 1 hour and further stimulated with phorbol ester myristate acetate PMA (1 μg/ml) for 4 hours, after which luciferase activity was measured.

## COC1=CC(c2ccc[nH]2)=N/C1=C\c1[nH]c(C)c2c1C(C)CCC2 (stereo not drawn) [cPrG-HCl, Cycloprodigiosin hydrochloride]
NF-κB [1]
  gene expression induction by NF-κB: significantly suppressed
CMV promoter
  expression of the CMV promoter-dependent luciferase gene: did not inhibit
IL-8 promoter
  IL-8 promoter-dependent transcriptional activity induced by TNFα: markedly suppressed
NF-κB [2]; PMA stimulation, FIG. 3B
  nuclear translocation of NF-κB: inhibited neither
NF-κB [2]; TNFα stimulation, FIG. 2F
  nuclear translocation of NF-κB: not inhibited
CRE binding factor
  PMA-induced CRE-dependent transcriptional activity: markedly suppressed
